The source of these data is US20250059182A1, “SOS1 INHIBITORS” (Mirati Therapeutics, Inc., priority 2021, published 2025).

The test system of one experiment is pERK in MKN1 cells. Description: pERK inhibition, In-Cell Western (LI-COR Odyssey), MKN1 cells. The conditions noted are these: Homo sapiens, MKN-1, Table B; MKN1 or H358 cells (table does not say which); 0.5-1 hour incubation; read-out: IC50 (nM), pERK inhibition. The format is cell-based. The method, boiled down: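 MKN1 cells were exposed for about 0.5–1 h at 37 °C to nine 3-fold dilutions starting at 10 µM. Cells were then fixed in formaldehyde, permeabilised with methanol, and immunostained for pERK and GAPDH with near-infrared secondary antibodies. GAPDH-normalised pERK signal relative to vehicle gave % inhibition, from which IC50 was fitted.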

Experiment [1] concerns the target T1, recombinant human SOS1 polypeptide (amino acids 560-1049) (Homo sapiens, UniProt Q07889).
T1 construct: corresponding to amino acids 560-1049, expressed in E. Coli; made in house; host or cells: E. coli
T1 sequence (Q07889 560-1049): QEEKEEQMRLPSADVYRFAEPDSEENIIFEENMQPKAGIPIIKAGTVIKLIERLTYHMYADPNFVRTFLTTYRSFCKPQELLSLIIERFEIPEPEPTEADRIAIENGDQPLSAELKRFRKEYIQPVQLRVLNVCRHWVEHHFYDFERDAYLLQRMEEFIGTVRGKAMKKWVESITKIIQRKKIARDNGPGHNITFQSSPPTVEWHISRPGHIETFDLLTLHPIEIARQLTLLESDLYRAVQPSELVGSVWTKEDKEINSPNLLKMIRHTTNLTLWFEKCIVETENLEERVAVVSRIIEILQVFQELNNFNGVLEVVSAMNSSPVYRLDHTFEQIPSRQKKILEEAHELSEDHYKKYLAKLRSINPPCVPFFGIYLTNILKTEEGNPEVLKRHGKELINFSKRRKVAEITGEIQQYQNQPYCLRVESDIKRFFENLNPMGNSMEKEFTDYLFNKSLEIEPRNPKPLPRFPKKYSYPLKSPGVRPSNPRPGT
Description: HTRF displacement assay: inhibition of labeled tracer binding to SOS1. The conditions noted are these: Table A, Morrison equation for competitive binding. For orientation: TR-FRET usually uses a lanthanide donor and a delayed reading to cut background.

Molecules are shown by their SMILES.

As for `CCN1C[C@H]2C[C@@H]1CN2c1cc2c(N[C@H](C)c3cccc(C#N)c3C)nnc(C)c2cn1` [Example 1-37, 3-((R)-1-((7-((1R,4R)-5-ethyl-2,5-diazabicyclo[2.2.1]heptan-2-yl)-4-methylpyrido[3,4-d]pyridazin-1-yl)amino)ethyl)-2-methylbenzonitrile], the IC50 (as a rule, the concentration that gives 50% inhibition) with pERK in MKN1 cells amounted to 19.7 nM. The inhibition constant Ki (commonly a dissociation constant, usually derived from enzyme kinetics or from competition with a known ligand) in experiment [1] was 1.61 nM.

Consider `CCN1CC[C@H](Nc2cc3c(N[C@H](C)c4cccc(C#N)c4C)nnc(C)c3cn2)C1` [Example 1-38, 3-((R)-1-((7-(((S)-1-ethylpyrrolidin-3-yl)amino)-4-methylpyrido[3,4-d]pyridazin-1-yl)amino)ethyl)-2-methylbenzonitrile], for which, in the experiment on pERK in MKN1 cells, the IC50 was found to be 221 nM. In addition, the inhibition constant (Ki) in experiment [1] stood at 5.6 nM.

Take `CCN1CC[C@@H](Nc2cc3c(N[C@H](C)c4cccc(C#N)c4C)nnc(C)c3cn2)C1` [Example 1-39, 3-((R)-1-((7-(((R)-1-ethylpyrrolidin-3-yl)amino)-4-methylpyrido[3,4-d]pyridazin-1-yl)amino)ethyl)-2-methylbenzonitrile]: the IC50 in the experiment with pERK in MKN1 cells was 126 nM. Moreover, the Ki in experiment [1] was determined as 4 nM.

On to `Cc1c(C#N)cccc1[C@@H](C)Nc1nnc(C)c2cnc(N(C)C3CCN(C)CC3)cc12` [Example 1-40, (R)-2-methyl-3-(1-((4-methyl-7-(methyl(1-methylpiperidin-4-yl)amino)pyrido[3,4-d]pyridazin-1-yl)amino)ethyl)benzonitrile], for which, in the experiment on pERK in MKN1 cells, the IC50 is 45.4 nM. In experiment [1], the Ki was 0.805 nM.

Consider `Cc1c(C#N)cccc1[C@@H](C)Nc1nnc(C)c2cnc(NC3CCN(C)CC3)cc12` [Example 1-41, (R)-2-methyl-3-(1-((4-methyl-7-((1-methylpiperidin-4-yl)amino)pyrido[3,4-d]pyridazin-1-yl)amino)ethyl)benzonitrile], for which the IC50 in the experiment on pERK in MKN1 cells was found to be 272 nM. For the same compound, the Ki in experiment [1] is 4.49 nM.

As to `CCN1CCC(Nc2cc3c(N[C@H](C)c4cccc(C#N)c4C)nnc(C)c3cn2)CC1` [Example 1-42, (R)-3-(1-((7-((1-ethylpiperidin-4-yl)amino)-4-methylpyrido[3,4-d]pyridazin-1-yl)amino)ethyl)-2-methylbenzonitrile], the IC50 in the experiment on pERK in MKN1 cells is 257 nM. Also, the Ki in experiment [1] was 7.37 nM.

For `CCN1CCC(N(C)c2cc3c(N[C@H](C)c4cccc(C#N)c4C)nnc(C)c3cn2)CC1` [Example 1-43, (R)-3-(1-((7-((1-ethylpiperidin-4-yl)(methyl)amino)-4-methylpyrido[3,4-d]pyridazin-1-yl)amino)ethyl)-2-methylbenzonitrile], in the experiment with pERK in MKN1 cells, the IC50 came out at 42.2 nM. In addition, the Ki in experiment [1] is 1.28 nM.

In the case of `CCN1CCN(c2cc3c(N[C@H](C)c4cccc(C#N)c4C)nnc(C)c3cn2)CC1=O` [Example 1-44, (R)-3-(1-((7-(4-ethyl-3-oxopiperazin-1-yl)-4-methylpyrido[3,4-d]pyridazin-1-yl)amino)ethyl)-2-methylbenzonitrile], the IC50 with pERK in MKN1 cells worked out at 44.6 nM. Also, the inhibitory constant (Ki) in experiment [1] turned out to be 1.9 nM.

Turning to `Cc1c(C#N)cccc1[C@@H](C)Nc1nnc(C)c2cnc(N3CC[C@H](O)C3)cc12` [Example 1-46, 3-((R)-1-((7-((S)-3-hydroxypyrrolidin-1-yl)-4-methylpyrido[3,4-d]pyridazin-1-yl)amino)ethyl)-2-methylbenzonitrile], the IC50 in the experiment with pERK in MKN1 cells was determined as 71.3 nM. Moreover, in experiment [1], the Ki is 1.95 nM.

On to `Cc1c(C#N)cccc1[C@@H](C)Nc1nnc(C)c2cnc(N3CC[C@@H](O)C3)cc12` [Example 1-47, 3-((R)-1-((7-((R)-3-hydroxypyrrolidin-1-yl)-4-methylpyrido[3,4-d]pyridazin-1-yl)amino)ethyl)-2-methylbenzonitrile], for which the IC50 in the experiment on pERK in MKN1 cells turned out to be 50.3 nM. Further, the Ki in experiment [1] came to 1.33 nM.

Turning to `CO[C@H]1CCN(c2cc3c(N[C@H](C)c4cccc(C#N)c4C)nnc(C)c3cn2)C1` [Example 1-48, 3-((R)-1-((7-((S)-3-methoxypyrrolidin-1-yl)-4-methylpyrido[3,4-d]pyridazin-1-yl)amino)ethyl)-2-methylbenzonitrile], in the experiment on pERK in MKN1 cells, the IC50 was 39.2 nM. Also, the Ki in experiment [1] came to 2.02 nM.

For the compound `CO[C@@H]1CCN(c2cc3c(N[C@H](C)c4cccc(C#N)c4C)nnc(C)c3cn2)C1` [Example 1-49, 3-((R)-1-((7-((R)-3-methoxypyrrolidin-1-yl)-4-methylpyrido[3,4-d]pyridazin-1-yl)amino)ethyl)-2-methylbenzonitrile], the IC50 in the experiment on pERK in MKN1 cells stood at 36 nM. Moreover, the Ki in experiment [1] is 2.01 nM.

With `Cc1c(C#N)cccc1[C@@H](C)Nc1nnc(C)c2cnc(N3CC[C@H](NS(C)(=O)=O)C3)cc12` [Example 1-50, N-((S)-1-(1-(((R)-1-(3-cyano-2-methylphenyl)ethyl)amino)-4-methylpyrido[3,4-d]pyridazin-7-yl)pyrrolidin-3-yl)methanesulfonamide], the IC50 in the experiment with pERK in MKN1 cells stood at 602 nM. For the same compound, the Ki in experiment [1] turned out to be 2.07 nM.

Regarding `Cc1c(C#N)cccc1[C@@H](C)Nc1nnc(C)c2cnc(N(C)[C@H]3CCNC3)cc12` [Example 1-51, 2-methyl-3-((R)-1-((4-methyl-7-(methyl((S)-pyrrolidin-3-yl)amino)pyrido[3,4-d]pyridazin-1-yl)amino)ethyl)benzonitrile], the IC50 with pERK in MKN1 cells is 275 nM. Besides, the inhibition constant Ki in experiment [1] stood at 0.867 nM.

Consider `Cc1c(C#N)cccc1[C@@H](C)Nc1nnc(C)c2cnc(N(C)[C@@H]3CCNC3)cc12` [Example 1-52, 2-methyl-3-((R)-1-((4-methyl-7-(methyl((R)-pyrrolidin-3-yl)amino)pyrido[3,4-d]pyridazin-1-yl)amino)ethyl)benzonitrile], for which the IC50 in the experiment with pERK in MKN1 cells is 457 nM. For the same compound, in experiment [1], the Ki came out at 1.11 nM.

For `Cc1c(C#N)cccc1[C@@H](C)Nc1nnc(C)c2cnc(N(C)[C@H]3CCCNC3)cc12` [Example 1-53, 2-methyl-3-((R)-1-((4-methyl-7-(methyl((S)-piperidin-3-yl)amino)pyrido[3,4-d]pyridazin-1-yl)amino)ethyl)benzonitrile], in the experiment with pERK in MKN1 cells, the IC50 was 210 nM. Besides, the Ki in experiment [1] came to 0.853 nM.

As for `Cc1c(C#N)cccc1[C@@H](C)Nc1nnc(C)c2cnc(N(C)[C@@H]3CCCNC3)cc12` [Example 1-54, 2-methyl-3-((R)-1-((4-methyl-7-(methyl((R)-piperidin-3-yl)amino)pyrido[3,4-d]pyridazin-1-yl)amino)ethyl)benzonitrile], the IC50 with pERK in MKN1 cells came out at 142 nM. In experiment [1], the Ki came out at 1.2 nM.

Turning to `Cc1c(C#N)cccc1[C@@H](C)Nc1nnc(C)c2cnc(N(C)C[C@@H]3CCCN3)cc12` [Example 1-55, 2-methyl-3-((R)-1-((4-methyl-7-(methyl(((S)-pyrrolidin-2-yl)methyl)amino)pyrido[3,4-d]pyridazin-1-yl)amino)ethyl)benzonitrile], the IC50 with pERK in MKN1 cells is 290 nM. Also, the inhibition constant (Ki) in experiment [1] was determined as 2.18 nM.

For the compound `Cc1c(C#N)cccc1[C@@H](C)Nc1nnc(C)c2cnc(N(C)C[C@H]3CCCN3)cc12` [Example 1-56, 2-methyl-3-((R)-1-((4-methyl-7-(methyl(((R)-pyrrolidin-2-yl)methyl)amino)pyrido[3,4-d]pyridazin-1-yl)amino)ethyl)benzonitrile], in the experiment with pERK in MKN1 cells, the IC50 came out at 246 nM. Besides, in experiment [1], the Ki came out at 2.15 nM.

Turning to `Cc1c(C#N)cccc1[C@@H](C)Nc1nnc(C)c2cnc(N(C)C[C@@H]3CCCN3C)cc12` [Example 1-57, 2-methyl-3-((R)-1-((4-methyl-7-(methyl(((S)-1-methylpyrrolidin-2-yl)methyl)amino)pyrido[3,4-d]pyridazin-1-yl)amino)ethyl)benzonitrile], in the experiment on pERK in MKN1 cells, the IC50 is 39.2 nM. In addition, the inhibition constant (Ki) in experiment [1] stood at 1.59 nM.

As to `Cc1c(C#N)cccc1[C@@H](C)Nc1nnc(C)c2cnc(N(C)C[C@H]3CCCN3C)cc12` [Example 1-58, 2-methyl-3-((R)-1-((4-methyl-7-(methyl(((R)-1-methylpyrrolidin-2-yl)methyl)amino)pyrido[3,4-d]pyridazin-1-yl)amino)ethyl)benzonitrile], the IC50 in the experiment with pERK in MKN1 cells stood at 73.8 nM. Moreover, the Ki in experiment [1] amounted to 1.89 nM.

Take `COCCN1CC2(C1)CN(c1cc3c(N[C@H](C)c4cccc(C#N)c4C)nnc(C)c3cn1)C2` [Example 1-59, (R)-3-(1-((7-(6-(2-methoxyethyl)-2,6-diazaspiro[3.3]heptan-2-yl)-4-methylpyrido[3,4-d]pyridazin-1-yl)amino)ethyl)-2-methylbenzonitrile]: in the experiment on pERK in MKN1 cells, the IC50 is 37.6 nM. Also, in experiment [1], the inhibitory constant (Ki) is 0.977 nM.

For `CCOCCN1CC2(C1)CN(c1cc3c(N[C@H](C)c4cccc(C#N)c4C)nnc(C)c3cn1)C2` [Example 1-60, (R)-3-(1-((7-(6-(2-ethoxyethyl)-2,6-diazaspiro[3.3]heptan-2-yl)-4-methylpyrido[3,4-d]pyridazin-1-yl)amino)ethyl)-2-methylbenzonitrile], in the experiment with pERK in MKN1 cells, the IC50 came out at 39.9 nM. Further, in experiment [1], the inhibition constant (Ki) is 0.93 nM.

In the case of `Cc1c(C#N)cccc1[C@@H](C)Nc1nnc(C)c2cnc(N3CC4(CN(CCO)C4)C3)cc12` [Example 1-61, (R)-3-(1-((7-(6-(2-hydroxyethyl)-2,6-diazaspiro[3.3]heptan-2-yl)-4-methylpyrido[3,4-d]pyridazin-1-yl)amino)ethyl)-2-methylbenzonitrile], the half-maximal inhibitory concentration (IC50) in the experiment with pERK in MKN1 cells came out at 1340 nM. The Ki in experiment [1] was found to be 0.797 nM.
